Measured values as given in publication PMC6886544.

Molecular target: EGFR-T790M (Homo sapiens, UniProt P00533, T790M)
Assay: Mass spectrometry analysis of covalent bond formation
Assay type: binding
Set-up: made in house; host or cells: Sf9 insect cells (BacMagic system)
Settings: EGFR-T790M incubated with inhibitor on ice for 1 h
Source text: captured and quantified using a FUJI LAS3000 system with Science Lab 2001 ImageGauge 4.0 software (Fujifilm Medial Systems, Stamford CT, USA).
Rabbit antibodies specific for phospho-EGFR (Tyr1045), EGFR, Akt, phospho-Akt (Ser473), p42/44 mitogen-activated protein kinase (MAPK), phospho-p44/42 MAPK (Thr202/Tyr204), S6 ribosomal protein, phospho-S6 ribosomal protein (Ser235/236), mouse anti-β-actin antibody as well as HRP-conjugated anti-rabbit and anti-mouse secondary antibodies were purchased from Cell Signaling (Frankfurt, Germany; Beverly, MA).
Mass spectrometry experiments.
We used the drug-resistant mutant EGFR-T790M variant for MS experiments. We incubated a […]
glycerol, 1 mM TCEP, pH 8) on ice for 1 h. We analyzed the aliquots by ESI-MS using an Thermo Fisher Scientific Dionex UltiMate 3000 HPLC system connected to a Thermo Fisher Scientific Velos Pro (2d ion trap). Therefore, 5 μL of sample was injected and separated using a Vydac 214TP C4 5 μm column (150 mm x 2.1 mm) starting at 20% of solvent B for 5 minutes followed by a gradient up to 90% of solvent B over 14 min with a flow rate of 210 μL/min with 0.1% TFA in water as solvent A and 0.1% TFA in MeCN as solvent B. A mass range of 700 to 2000 m/z was scanned and raw data was deconvoluted and analyzed with MagTran software (Z.Q. Zhang, A.G. […]

Sequence of EGFR-T790M (P00533 712-979 T790M limits assumed): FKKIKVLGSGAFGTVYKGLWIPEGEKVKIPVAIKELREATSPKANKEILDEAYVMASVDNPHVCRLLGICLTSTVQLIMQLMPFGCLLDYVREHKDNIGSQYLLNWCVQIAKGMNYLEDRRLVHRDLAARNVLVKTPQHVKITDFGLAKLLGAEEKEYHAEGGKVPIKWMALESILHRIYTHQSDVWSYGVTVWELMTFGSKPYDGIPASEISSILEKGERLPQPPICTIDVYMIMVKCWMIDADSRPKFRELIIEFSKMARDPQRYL

covalent labelling by tandem mass spectrometry: specific single alkylation of Cys797
SMILES: C=CC(=O)Nc1cccc(-c2c(-c3ccc(N4CCN(C)CC4)cc3)[nH]c3ncnc(OCC(C)C)c23)c1 [Compound 19h]
